The term half-life denotes the time needed for the level to fall by half in the phase considered. The low end stands for rapid decline, the high end for slow decline. For orientation: inhibition means the drop in the measured response relative to a control, in per cent.

“Also recorded” adds a separate entry of the source. Some results are limits rather than exact numbers.

This note sets out measurements from US11845770B2, “Ascaroside derivatives and methods of use” (California Institute of Technology, priority 2019, dated 2023).

Data set [1] concerns THP-1 derived macrophages. Briefly: Stimulation of THP-1 cells, cytokine release 72 h post stimulation. Type of data set: cell-based, human. Particulars: 72 h post stimulation (IFN-γ + LPS); 0.1, 1, 10, 100 or 200 μM vs 0 μM. As to the method:
Human immortalized monocytic THP-1 cells were maintained in phenol red free RPMI 1640 medium containing 10% (v/v) fetal bovine serum (FBS), 2 mM L-glutamine, penicillin (100 units/mL), streptomycin (100 μg/mL), amphotericin B (2.5 μg/mL), and 50 μM beta-mercaptoethanol (BME) at 37° C. with 5% (v/v) CO2. THP-1 cells were seeded in 1 mL of THP-1 medium (cell culture medium containing 10% (v/v) FBS, 2 mM L-glutamine, penicillin (100 units/mL), streptomycin (100 μg/mL), amphotericin B (2.5 μg/mL), and 50 μM BME)/well at a density of 1 million cells/mL in six-well plates. Cells were differentiated by adding 100 nM phorbol 12-myristate 13-acetate (PMA) to each well before incubating cells for 5.5 h at 37° C. with 5% (v/v) CO2. Without removing the media, different concentrations (either 0, 0.1, 1, 10, 100, or 200 μM) of 1 and 10 were added to each well. Cells were stimulated, within 30 min by adding 20 ng/mL interferon gamma (IFN-γ) and 100 ng/mL lipopolysaccharide (LPS) to each well. Following stimulation, the THP-1 cells were incubated for 72 h at 37° C. with 5% (v/v) CO2. Supernatant was collected and stored at −80° C. until use.
IL-6 release from supernatant collected at 72 hours post stimulation was measured using the AlphaLISA Human IL-6 detection kit.
TNFα release from supernatant collected at 72 hours post stimulation was measured using the AlphaLISA Human TNFα detection kit.

A short description of data set [2]: Stability in hepatocytes (rat). The class given is in vitro ADME. To be noted: cryopreserved rat hepatocytes (suspension). As for the experimental part:
(§1) 10 mM of 1 was provided as a 1000× stock solution in dimethylsulfoxide (DMSO), and the stock solution was diluted to 1 mM with DMSO in 96-well plates. 30 mM of positive compounds (7-ethoxycoumarin and 7-hydroxycoumarin) were provided as a 1000× stock solution in DMSO, and the stock solution was diluted to 3 mM with DMSO in 96-well plates. 20 μL of 1000× stock solution of each compound were pipetted and was mixed with 380 μL of 45% MeOH/H2O to obtain 50 μM of 1 and 150 μM of the positive control compound solutions to form 50× intermediate solutions. 20 μL of 50× intermediate solution of each compound were pipetted and was mixed with […] of pre-warmed incubation medium to obtain 5 μM of 1 and 15 μM of the positive control compound solutions to form 5× working solutions. The incubation medium was Williams' Medium E (no phenol red) containing 2 mM L-glutamine and 25 mM HEPES. 10 μL of 5× working solutions of each compound were pipetted into appropriate wells in a 96-well plate for time points of 0 minutes, 15 minutes, 30 minutes, 60 minutes, and 90 minutes in duplicates. The plates with compounds were kept warm in an incubator at 37° C.
(§2) A cell suspension was prepared by thawing cryopreserved cells, isolating the cells, and suspending the cells in thawing medium. […]
(§3) The remaining percentage of 1 after incubation was calculated according to the following equation. […]

A short description of data set [3]: Stability in hepatocytes (human). The class given is in vitro ADME. To be noted: cryopreserved human hepatocytes (suspension). As for the experimental part:
as §1, §2, §3

The target in data set [4] is T1, CYP3A4 (Homo sapiens, UniProt P08684).
T1 construct: from tissue
T1 sequence (P08684 whole entry): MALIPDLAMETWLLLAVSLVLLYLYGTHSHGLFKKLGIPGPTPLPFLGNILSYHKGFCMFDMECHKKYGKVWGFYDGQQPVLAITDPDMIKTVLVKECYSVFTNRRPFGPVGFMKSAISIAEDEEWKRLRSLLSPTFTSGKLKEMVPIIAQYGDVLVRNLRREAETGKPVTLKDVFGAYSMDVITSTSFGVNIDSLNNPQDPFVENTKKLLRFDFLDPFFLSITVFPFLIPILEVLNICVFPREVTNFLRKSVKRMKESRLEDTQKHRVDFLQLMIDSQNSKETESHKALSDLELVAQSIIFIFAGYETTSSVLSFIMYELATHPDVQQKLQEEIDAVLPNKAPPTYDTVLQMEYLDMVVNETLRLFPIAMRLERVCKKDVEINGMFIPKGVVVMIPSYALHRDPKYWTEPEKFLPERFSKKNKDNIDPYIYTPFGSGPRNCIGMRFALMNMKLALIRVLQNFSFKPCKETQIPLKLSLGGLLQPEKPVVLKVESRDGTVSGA
In words: 5 in 1 CYP inhibition assay, CYP3A4. Particulars: microsomes, probe midazolam (1′-hydroxylation), test compound 10 μM, n=2, read-out: inhibition of cytochrome P450 isoform 3A4. The class given is in vitro ADME. As to the method:
CYP450 dependent activities were determined using a marker substrate cocktail. For each reaction, enzyme activities in the presence and absence of test compound (10 μM) were measured in duplicate. A known inhibitor for each isoform, tested at a single concentration (3 μM, n=2), was included as positive control. Incubation mixtures containing microsomes, substrate, and standard inhibitor or test compound were warmed at 37° C. for 10 minutes. Reactions were initiated by addition of the NADPH and incubated for 10 min. [table] After incubation, ice cold acetonitrile was added to terminate the reaction. Generation of metabolites from the substrate reactions was determined by LC-MS/MS.

For data set [5], the system named is A549 human alveolar epithelial cells. In words: Stimulation of A549 human lung carcinoma cell line, cytokine expression. The class given is cell-based. To be noted: A549, 10 ng/mL TNFα + 10 ng/mL IL-1β, 48 hours; for percent inhibition relative to Stimulated of IL-8 expression: FIG. 16. As to the method: A549 cells are cultured in DMEM supplemented with 2 mM glutamine and 10% Fetal Bovine Serum (FBS) at 37° C. with 5% (v/v) CO2. Cells are grown to approximately 80% confluency before being passage and media is changed every 2-3 days. A549 cells are seeded in 24-well plates at a density of 0.5×10^6 cells per well at 37° C. with 5% (v/v) CO2. The cells are pre-treated with the compounds (0, 1.0, 10, 100 μM) for 1 hour prior to addition of 10 ng/mL of TNFα and 10 ng/mL of IL-1β for 48 hours at 37° C. with 5% (v/v) CO2. Supernatants were collected and stored at −80° C. until quantitative detection assays are performed.
Human Eotaxin, Monocyte Chemoattractant Protein-1 (MCP-1), Interleukin-6 (IL-6), Interleukin-25 (IL-25), Interleukin-33 (IL-33), Thymic stromal lymphopoietin (TSLP), and Granulocyte-Macrophage Colony-Stimulating Factor (GM-CSF) released from supernatants collected post stimulation were measured using Human Magnetic Luminex® Assay Kit. Human CCL5/RANTES was measured using an Enzyme-Linked Immunosorbent Assay (ELISA)-based analysis.

In the case of `C[C@H](CC/C=C/C(=O)O)O[C@@H]1O[C@@H](C)[C@H](O)C[C@H]1O` [ascr #7, reference compound], in data set [1], the “fold change of IL-6 levels secreted by the THP1-derived macrophages” value is “significantly reduced”. The half-life at 1 µM in data set [2] was greater than 3.61 h. The compound also displayed a half-life at 1 µM in data set [3] greater than 3.61 h. In addition, the inhibition at 10 min, 10 µM in data set [4] is 0%. The “percent inhibition relative to Stimulated of IL-8 expression” value in data set [5] (1.0, 10, 100 μM) is on record as “did not influence”. Further, in data set [5] (1.0, 10, 100 μM, FIG. 16, 17), the “percent inhibition relative to Stimulated of GM-CSF expression” value was “statistically significant but not dose-dependent inhibition”, the “percent inhibition relative to Stimulated of IL-25 expression” value is reported as “did not influence” and the “percent inhibition relative to Stimulated of MCP-1 expression” value is “statistically significant but not dose-dependent inhibition”.
In the case of `C[C@H](CC/C=C/C(=O)OC(C)(C)C)O[C@@H]1O[C@@H](C)[C@H](O)C[C@H]1O` [Compound 1, tert-butyl (2E,6R)-6-{[(2R,3R,5R,6S)-3,5-dihydroxy-6-methyloxan-2-yl]oxy}hept-2-enoate], in data set [1], the “fold change of IL-6 levels secreted by the THP1-derived macrophages” value is listed as “reduced these levels significantly; also recorded: even more significantly reduced” and the “fold change of TNFα levels secreted by the THP1-derived macrophages” value is “reduced these levels significantly”. In data set [2], this compound returned a half-life at 1 µM of 0.385 h. In data set [3], this compound gave a half-life at 1 µM of 1.77 h. For the same compound, the inhibition at 10 min, 10 µM in data set [4] was determined as 1%. In addition, the “percent inhibition relative to Stimulated of IL-8 expression” value in data set [5] (1.0, 10, 100 μM) is on record as “dose-dependent inhibition”. Further, in data set [5] (1.0, 10, 100 μM, FIG. 16, 17), the “percent inhibition relative to Stimulated of GM-CSF expression” value is “statistically significant, dose-dependent inhibition”; the “percent inhibition relative to Stimulated of IL-25 expression” value is on record as “dose-dependent inhibition”; the “percent inhibition relative to Stimulated of IL-33 expression” value is given as “statistically significant, dose-dependent inhibition”; the “percent inhibition relative to Stimulated of MCP-1 expression” value was “statistically significant, dose-dependent inhibition”. Moreover, in data set [5] (FIG. 18), the “percent inhibition relative to Stimulated of Eotaxin expression” value is given as “robust, statistically significant inhibition”; the “percent inhibition relative to Stimulated of IL-6 expression” value is “robust, statistically significant inhibition”; the “percent inhibition relative to Stimulated of RANTES expression” value is on record as “robust, statistically significant inhibition”; the “percent inhibition relative to Stimulated of TSLP expression” value is listed as “robust, statistically significant inhibition”.
